{"source": "paper PMC12445503", "about": "(Channels, 2025)", "type_in_all_cases": "cell-based", "key": {"Cav1.3": {"target": "T1, Cav1.3 (Homo sapiens, UniProt Q01668)", "T1 construct": "gene CACNA1D; human Cav1.3S (C-terminal short splice variant, exon 8b) α1 stably expressed in tsA-201 cells; with auxiliary β3 (rat) and α2δ1 (rabbit) subunits", "T1 sequence (Q01668 whole entry, canonical isoform)": "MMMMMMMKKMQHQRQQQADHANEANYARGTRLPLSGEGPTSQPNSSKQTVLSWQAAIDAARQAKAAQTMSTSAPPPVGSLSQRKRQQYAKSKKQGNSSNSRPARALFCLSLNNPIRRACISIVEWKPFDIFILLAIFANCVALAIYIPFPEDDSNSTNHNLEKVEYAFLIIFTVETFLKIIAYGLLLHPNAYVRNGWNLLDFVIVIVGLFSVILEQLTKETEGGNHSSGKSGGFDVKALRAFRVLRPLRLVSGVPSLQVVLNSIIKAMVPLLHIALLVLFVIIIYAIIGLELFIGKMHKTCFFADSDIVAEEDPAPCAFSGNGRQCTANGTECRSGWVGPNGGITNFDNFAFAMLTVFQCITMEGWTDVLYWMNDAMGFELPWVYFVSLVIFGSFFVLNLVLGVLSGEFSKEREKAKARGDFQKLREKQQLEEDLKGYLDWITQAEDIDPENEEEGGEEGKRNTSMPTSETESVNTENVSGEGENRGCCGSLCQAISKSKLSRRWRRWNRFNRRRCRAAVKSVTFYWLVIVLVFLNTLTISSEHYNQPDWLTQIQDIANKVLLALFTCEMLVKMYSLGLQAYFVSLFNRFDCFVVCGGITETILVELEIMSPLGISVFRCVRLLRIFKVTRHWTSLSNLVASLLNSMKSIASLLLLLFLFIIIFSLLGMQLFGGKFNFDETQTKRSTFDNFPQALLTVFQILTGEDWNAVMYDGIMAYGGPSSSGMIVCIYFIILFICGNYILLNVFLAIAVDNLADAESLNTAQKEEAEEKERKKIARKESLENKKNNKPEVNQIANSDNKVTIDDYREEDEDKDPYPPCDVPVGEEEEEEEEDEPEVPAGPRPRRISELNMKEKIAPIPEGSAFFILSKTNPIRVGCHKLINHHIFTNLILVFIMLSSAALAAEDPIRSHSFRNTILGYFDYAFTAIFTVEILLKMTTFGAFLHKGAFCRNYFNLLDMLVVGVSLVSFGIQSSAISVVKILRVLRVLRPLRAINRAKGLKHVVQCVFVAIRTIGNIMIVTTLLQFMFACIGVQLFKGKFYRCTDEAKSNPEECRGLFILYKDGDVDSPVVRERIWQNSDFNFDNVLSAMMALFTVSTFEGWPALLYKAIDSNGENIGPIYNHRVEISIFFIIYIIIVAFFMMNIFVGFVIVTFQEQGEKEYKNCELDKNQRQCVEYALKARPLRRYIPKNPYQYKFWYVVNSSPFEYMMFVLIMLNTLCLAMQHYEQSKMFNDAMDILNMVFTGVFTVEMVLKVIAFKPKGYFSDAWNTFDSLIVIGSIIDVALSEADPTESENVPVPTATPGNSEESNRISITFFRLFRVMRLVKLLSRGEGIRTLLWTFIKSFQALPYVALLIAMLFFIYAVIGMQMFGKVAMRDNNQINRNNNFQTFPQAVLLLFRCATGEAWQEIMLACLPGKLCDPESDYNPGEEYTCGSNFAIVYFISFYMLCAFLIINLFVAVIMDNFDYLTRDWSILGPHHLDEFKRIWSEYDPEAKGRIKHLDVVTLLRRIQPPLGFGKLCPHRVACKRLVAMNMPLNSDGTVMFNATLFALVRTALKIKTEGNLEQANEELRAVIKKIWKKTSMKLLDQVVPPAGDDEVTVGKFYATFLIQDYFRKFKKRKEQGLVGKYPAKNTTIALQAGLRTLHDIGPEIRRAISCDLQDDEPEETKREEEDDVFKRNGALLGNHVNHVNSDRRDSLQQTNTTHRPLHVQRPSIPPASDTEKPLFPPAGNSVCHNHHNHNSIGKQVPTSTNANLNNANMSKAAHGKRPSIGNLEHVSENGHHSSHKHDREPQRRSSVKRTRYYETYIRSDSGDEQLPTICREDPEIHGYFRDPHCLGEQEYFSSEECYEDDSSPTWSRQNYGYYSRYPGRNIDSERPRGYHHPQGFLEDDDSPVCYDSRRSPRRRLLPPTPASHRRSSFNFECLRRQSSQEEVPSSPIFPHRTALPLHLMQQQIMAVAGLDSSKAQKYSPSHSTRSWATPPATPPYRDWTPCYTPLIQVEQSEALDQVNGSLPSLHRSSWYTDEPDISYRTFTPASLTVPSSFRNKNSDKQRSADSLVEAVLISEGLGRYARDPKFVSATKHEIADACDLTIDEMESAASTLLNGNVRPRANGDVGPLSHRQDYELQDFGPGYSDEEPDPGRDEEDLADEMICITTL", "T1 sequence (P54287 whole entry partner, canonical isoform)": "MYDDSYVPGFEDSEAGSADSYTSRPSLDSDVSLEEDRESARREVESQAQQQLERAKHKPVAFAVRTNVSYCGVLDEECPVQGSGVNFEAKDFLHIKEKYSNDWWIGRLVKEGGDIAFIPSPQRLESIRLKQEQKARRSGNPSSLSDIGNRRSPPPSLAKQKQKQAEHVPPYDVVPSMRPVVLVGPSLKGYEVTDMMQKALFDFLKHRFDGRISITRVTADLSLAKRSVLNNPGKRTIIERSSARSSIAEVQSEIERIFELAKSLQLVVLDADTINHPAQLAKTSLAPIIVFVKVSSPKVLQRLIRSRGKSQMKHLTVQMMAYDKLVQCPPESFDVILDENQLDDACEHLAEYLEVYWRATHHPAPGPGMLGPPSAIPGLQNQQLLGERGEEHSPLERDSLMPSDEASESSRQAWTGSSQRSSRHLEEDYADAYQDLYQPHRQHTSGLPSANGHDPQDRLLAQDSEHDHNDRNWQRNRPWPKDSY", "T1 sequence (P13806 27-960 partner)": "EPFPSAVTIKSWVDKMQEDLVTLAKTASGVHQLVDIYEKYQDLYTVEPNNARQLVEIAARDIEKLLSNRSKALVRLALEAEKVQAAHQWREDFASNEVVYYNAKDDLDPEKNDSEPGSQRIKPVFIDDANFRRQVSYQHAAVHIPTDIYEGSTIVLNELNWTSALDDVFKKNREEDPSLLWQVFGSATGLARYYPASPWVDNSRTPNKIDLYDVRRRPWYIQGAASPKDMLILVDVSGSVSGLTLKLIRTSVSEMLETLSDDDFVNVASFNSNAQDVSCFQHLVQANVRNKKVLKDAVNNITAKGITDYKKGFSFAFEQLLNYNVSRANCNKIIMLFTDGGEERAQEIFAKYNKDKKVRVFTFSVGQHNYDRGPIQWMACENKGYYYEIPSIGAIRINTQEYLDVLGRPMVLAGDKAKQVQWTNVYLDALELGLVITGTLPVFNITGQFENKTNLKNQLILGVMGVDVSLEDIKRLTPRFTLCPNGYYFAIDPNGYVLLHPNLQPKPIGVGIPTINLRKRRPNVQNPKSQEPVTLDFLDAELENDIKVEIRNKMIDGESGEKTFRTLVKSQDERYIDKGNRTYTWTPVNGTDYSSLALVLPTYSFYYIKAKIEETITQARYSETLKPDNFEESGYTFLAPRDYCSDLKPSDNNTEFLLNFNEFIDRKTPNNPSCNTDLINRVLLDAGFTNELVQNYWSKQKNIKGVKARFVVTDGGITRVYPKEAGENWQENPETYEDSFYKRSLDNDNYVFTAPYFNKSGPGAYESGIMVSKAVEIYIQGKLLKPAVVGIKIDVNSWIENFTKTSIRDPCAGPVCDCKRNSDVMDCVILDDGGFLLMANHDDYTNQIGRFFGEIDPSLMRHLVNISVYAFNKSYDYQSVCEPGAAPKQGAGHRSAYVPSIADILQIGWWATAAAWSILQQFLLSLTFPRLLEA", "T1 sequence (P13806 961-1106 partner)": "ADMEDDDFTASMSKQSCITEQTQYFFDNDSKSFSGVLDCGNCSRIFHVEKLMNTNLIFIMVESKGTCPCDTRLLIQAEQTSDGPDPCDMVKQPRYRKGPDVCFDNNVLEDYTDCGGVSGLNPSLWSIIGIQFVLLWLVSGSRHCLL", "assay": "whole-cell patch-clamp concentration-response, […] Ca2+, HP -89 mV, […] Hz"}, "Cav1.2": {"target": "T2, Cav1.2 (Homo sapiens, UniProt Q13936)", "T2 construct": "gene CACNA1C; human Cav1.2 α1 stably expressed in tsA-201 cells; with auxiliary β3 (rat) and α2δ1 (rabbit) subunits", "assay": "whole-cell patch-clamp concentration-response, […] Ca2+, HP -89 mV, […] Hz"}, "Cav2.3": {"target": "T3, Cav2.3 (Homo sapiens, UniProt Q15878)", "T3 construct": "gene CACNA1E; Cav2.3e α1 transiently expressed in tsA-201 cells; with auxiliary β3 and α2δ1 subunits", "assay": "whole-cell patch-clamp, […], […] Ca2+, HP -89 mV, […] Hz", "conditions": "read-out: % remaining ICa / 10 μM"}}, "data": [{"compound": "COC(=O)C1=C(C)NC(C)=C(C(=O)OC(C)C)C1c1cccc2nonc12", "note": "(stereo not shown) [isradipine]", "values": [{"measurement": "IC50", "setting": "Cav1.3", "value": 0.134, "unit": "µM"}]}, {"compound": "C=C[C@](C)(O)CC[C@@H]1[C@@]2(C)CCCC(C)(C)[C@@H]2CC[C@@]1(C)O", "note": "[sclareol]", "values": [{"measurement": "IC50", "setting": "Cav1.3", "value": 16.3, "unit": "µM"}, {"measurement": "IC50", "setting": "Cav1.2", "value": 12.5, "unit": "µM"}, {"measurement": "remaining activity at 10 µM", "setting": "Cav2.3", "value": "36.7 ± 11.2", "unit": "%"}]}]}
